Source: paper PMC5080580, “Structural elucidation of estrus urinary lipocalin protein (EULP) and evaluating binding affinity with pheromones using molecular docking and fluorescence study” (Scientific Reports, 2016)

Molecular target: T1, estrus urinary lipocalin protein (EULP)
T1 construct: gene PMP2; native, purified from female rat urine by Sephadex G-50 gel filtration; printed peptides MSNKFL, KFLGTWKLT, KLTSSENFD, NFDEYMKAL, LGTRSLGNL, LAGPTVIIS, ITIRTESGF, GFKNTEISF, FEETTADNR, RKTKSTVTL, KSTVTLAGG, NGNETTIKR, SVVCTRIYE
Assay: fluorescence binding of 2-naphthol probe
Set-up: species or system Rattus rattus
Conditions: 10 mM phosphate buffer pH 7.2, room temperature; fluorescent probe

Oc1ccc2ccccc2c1 [2-naphthol]
Kd: 420 ± 60 nM
